The text below walks through data of patent publication US11603391B2, “CATH2 derivatives” (Universiteit Utrecht Holding B.V., priority 2014, dated 2023).

The subject of test [1] is HD11 cells. In words: Neutralization of LPS-induced interleukin-1β transcription in HD11 cells (real time PCR). It counts as cell-based, chicken. To be noted: 20 μM peptide pre-incubated with 50 ng/ml LPS; 4 h. The procedure:
(§1) FIG. 11A-11B—Neutralization of lipopolysaccharide-induced interleukin-1β induction and nitric oxide production in HD11 cells by CMAP27 derived peptides. HD11 cells were seeded in 96 wells tissue culture treated plates (2×10^5 cell/mL) in RPMI-1640/10% FCS. Final concentrations of 50 ng/ml LPS were pre-incubated with or without 20 μM peptide for 30 min at 37° C. (5% CO2), applied to the cells and incubated for 4 h and 24 h. A) Transcription levels of interleukin-1 were determined by real time PCR (4 h only). B) Supernatants were collected for the determination of nitric oxide production (24 h incubations only) using the Griess assay. Significance levels: *P<0.05, **P<0.01, ***P<0.001. Data represents means±SEM from 3-4 independent experiments.
as §1, with “FIG. 12A-12B—Substitution” for “FIG. 11A-11B—Neutralization”, “of phenylalanine residues by tryptophan enhances the” for “of lipopolysaccharide-induced interleukin-1β induction and nitric oxide production”, “in vitro LPS neutralization capacity of” for “in HD11 cells by”, “h or” for “h and”
(§2) HD11 cells were seeded in 96 wells tissue culture treated plates (2×10^5 cell/mL) in RPMI-1640/10% FCS. Final concentrations of 50 ng/ml Salmonella minnesota LPS were pre-incubated with or without 20 μM peptide for 30 min at 37° C. (5% CO2), applied to the cells and incubated for 4 h and 24 h. A) Transcription levels of interleukin-1 were determined by real time PCR (4 h only). B) Supernatants were collected for the determination of nitric oxide production (24 h incubations only) using the Griess assay.
(In general: Quantitative PCR measures a nucleic acid by following its amplification.)

Test [2] concerns HD11 cells. In words: Neutralization of LPS-induced nitric oxide production in HD11 cells (Griess assay). Format: cell-based, chicken. As to conditions: 20 μM peptide pre-incubated with 50 ng/ml LPS; 24 h. The procedure:
as §1
as §1, with “FIG. 12A-12B—Substitution” for “FIG. 11A-11B—Neutralization”, “of phenylalanine residues by tryptophan enhances the” for “of lipopolysaccharide-induced interleukin-1β induction and nitric oxide production”, “in vitro LPS neutralization capacity of” for “in HD11 cells by”, “h or” for “h and”
as §2

Another test has as its system J774.A1 cells. In words: Inhibition of APEC O78-induced TNFα production by macrophages (ELISA). It counts as cell-based, murine. To be noted: 5 μM peptide, 2 h, DMEM/10% FCS; for inhibition of TNFα production induced by heat-killed bacteria: 3×10^5 CFU/ml heat-killed APEC O78; for inhibition of TNFα production induced by live bacteria: 3×10^5 CFU/ml live APEC O78. Here is the method: (§3) FIG. 9A-9C—Antibacterial activity of CMAP27 derived peptides in vitro against an avian pathogenic Escherichia coli O78 (APEC O78) field isolate. A) Antibacterial activity of peptides (5 μM) against APEC O78 (2×10^6 CFU/ml) in 50% Mueller Hinton broth using colony count assays. B) Antibacterial activity of peptides (5 μM) against APEC O78 (3×10^5 CFU/ml) in DMEM containing 10% fetal calf serum (FCS) using colony count assays. C) TNFα production by J774.A1 cells (ELISA) after 2 h incubation at 37° C. with live or heat-killed APEC O78 (3×10^5 CFU/m) in DMEM/10% FCS, in the presence or absence of 5 μM peptide. Data represents means±SEM from 3 independent experiments.
Peptide-mediated inhibition of macrophage activation induced by live or heat-killed APEC O78, was examined using J774.A1 cells, a murine macrophage cell line. For this purpose, J774.A1 cells (150,000 cells/well) cultured in DMEM containing 10% FCS were exposed during 2 h at 37° C. to 3×10^5 CFU/ml APEC O78 with or without 5 μM peptide, after which supernatants were collected and used to determine TNFα production (ELISA).

The subject of test [3] is avian pathogenic Escherichia coli O78 (APEC O78) field isolate. The test is described as follows: Antibacterial colony count assay in DMEM containing 10% fetal calf serum. Format: cell-based. To be noted: 5 μM peptide, 3×10^5 CFU/ml, 2 h at 37° C., DMEM/10% FCS. The procedure: as §3
To test if peptides would be able to inhibit bacteria under more challenging conditions, e.g. in the presence of salts and serum proteins, APEC O78 was incubated with peptide in DMEM medium containing 10% fetal calf serum. In brief, bacterial survival was estimated by incubating 3×10^5 CFU/ml APEC O78 during 2 h at 37° C. in DMEM/10% FCS in the presence or absence of 5 μM peptide, after which serial dilutions were made, spread on agar media and colonies were enumerated after 24 h incubation at 37° C.

Test [4] deals with HD11 cells. In words: DNA-induced nitric oxide production in HD11 cells (Griess assay). Format: cell-based, chicken. As to conditions: 5 μM peptide; 2.5 nM ODN-2006; 17 h. Here is the method:
(§4) FIG. 13A-13B—CMAP27 derived peptides enhance DNA uptake and DNA-induced activation. A) HD11 cells were stimulated during 4 h with 2.5 nM Alexa-Fluor 488 labeled ODN-2006 in the absence and presence of CMAP27 derived peptides (5 μM), after which DNA uptake was analyzed by flow cytometry. B) Supernatants of HD11 cells stimulated for longer time (17 h) under these same conditions were collected and used for determination of nitric oxide production using the Griess assay. Data represents means±SEM from 3-4 independent experiments.
(§5) To study effects of peptides on the uptake of DNA, HD11 cells were seeded 3×10^5 cells in 24-wells plates, stimulated during 4 h with 2.5 nM Alexa-Fluor 488 labeled ODN-2006 in the absence and presence of CMAP27 derived peptides (5 μM), after which DNA uptake was analyzed by flow cytometry. Activation of HD11 cells was examined by collecting supernatants after 17 h under the same conditions and determination of nitric oxide production.

Test [5] deals with HD11 cells. In words: Uptake of Alexa-Fluor 488 labeled ODN-2006 by HD11 cells (flow cytometry). Format: cell-based, chicken. As to conditions: 5 μM peptide; 2.5 nM Alexa-Fluor 488 labeled ODN-2006; 4 h. The procedure:
as §4, §5
On the technique in general: Flow cytometry measures light scatter and fluorescence of single cells or particles in a stream.

Test [6] relates to HD11 cells. The test is described as follows: Chemokine induction in HD11 cells (real time PCR). Format: cell-based, chicken. To be noted: 20 μM peptide. Here is the method: FIG. 10—Chemokine induction by CMAP27 derived peptides in HD11 cells. HD11 cells were seeded in 96 wells tissue culture treated plates (2×10^5 cell/mL) in RPMI-1640/10% FCS and incubated at 37° C. (5% CO2) with peptide (20 μM) supplemented medium during 4 h (open bars) or 24 h (closed bars). Transcription levels of interleukin-1β, IL-8 (CXCLi2), monocyte chemotactic protein-3 (MCP-3) and RANTES (CCLi4) were determined by real time PCR. Significance levels: *P<0.05, **P<0.01, ***P<0.001. Data represents means±SEM from 3-4 independent experiments.
HD11 cells, a chicken macrophage cell line, were seeded in 96 wells tissue culture treated plates (2×10^5 cell/mL) in RPMI-1640/10% FCS and incubated at 37° C. (5% CO2) with peptide (20 μM) supplemented medium during 4 h or 24 h. Transcription levels of interleukin-1β, -8 (CXCLi2), monocyte chemotactic protein-3 (MCP-3) and RANTES (CCLi4) were determined by real time PCR.

No end group written: not given here.

For the substance “CMAP1-21-NH2: C-terminally truncated CMAP27 derivative, residues 1-21”, the “LPS-induced IL-1β expression blocked” value in the test on HD11 cells [1] is on record as 93.5%. The “LPS-induced NO production blocked” value in the test with HD11 cells [2] is on record as 78.9%. In the test with J774.A1 cells, the “inhibition of TNFα production induced by heat-killed bacteria” value (shortened to “inhibition … by heat-killed bacteria”) is “substantially inhibited” and the “inhibition of TNFα production induced by live bacteria” value was “substantially inhibited”. For the same substance, the “inhibition of bacterial growth (antibacterial activity, in words)” value (“inhibition of bacterial growth” below) in test [3] is reported as “substantially inhibited”. Also, the “DNA-induced nitric oxide production” value in the test on HD11 cells [4] is listed as “increasing”. Also, the “uptake of ODN-2006 by HD11 cells” value with HD11 cells [5] is “enhanced the uptake”.
In the case of “CMAP4-21-NH2: N-terminally truncated variant of CMAP1-21 (RFLRKIRRFRPKVTITIQ-NH2)”, the “LPS-induced IL-1β expression blocked” value in the test with HD11 cells [1] is given as 80.5%. Moreover, the “LPS-induced NO production blocked” value with HD11 cells [2] came to 51%. Moreover, the “inhibition of bacterial growth” value in test [3] is “substantially inhibited”. Moreover, the “DNA-induced nitric oxide production” value in the test with HD11 cells [4] is given as “increasing”. Also, in the test on HD11 cells [5], the “uptake of ODN-2006 by HD11 cells” value is “enhanced the uptake”.
As to “CMAP7-21-NH2: N-terminally truncated variant of CMAP1-21, 15 amino acid residues (RKIRRFRPKVTITIQ-NH2)”, in the test with HD11 cells [6] (4 h or 24 h), the “induction of CXCLi2/IL-8 transcription” value was “maintained a capacity to induce” and the “induction of MCP-3 transcription” value is “maintained a capacity to induce”. Also, the “LPS-neutralizing activity (block of LPS-induced IL-1β expression, in words)” value in the test on HD11 cells [1] is on record as “lack LPS-neutralizing activity”. Besides, the “inhibition … by heat-killed bacteria” value in the test with J774.A1 cells is “inhibited to some extent”. Further, the “inhibition of bacterial growth” value in test [3] is on record as “lacking antibacterial activity”. The “DNA-induced nitric oxide production” value in the test with HD11 cells [4] was “increasing”. For the same substance, in the test with HD11 cells [5], the “uptake of ODN-2006 by HD11 cells” value is on record as “enhanced the uptake”.
For the substance “RFGRFLRKIRRFRPKVTITIQGSARF-NH2 [CMAP1-26-NH2]”, in the test with HD11 cells [6] (4 h or 24 h), the “induction of CXCLi2/IL-8 transcription” value is “induce transcription”, the “induction of MCP-3 transcription” value was “induce transcription” and the “induction of proinflammatory cytokine IL-1β transcription” value is on record as “not induced”. The “induction of CCLi4/RANTES transcription” value in the test on HD11 cells [6] (prolonged stimulation (24 h) needed) was “induce transcription”. For the same substance, the “LPS-induced IL-1β expression blocked” value in the test with HD11 cells [1] amounted to 90.8%. Moreover, the “LPS-induced NO production blocked” value in the test on HD11 cells [2] turned out to be 96.2%. Moreover, in the test on J774.A1 cells, the “inhibition … by heat-killed bacteria” value is given as “substantially inhibited” and the “inhibition of TNFα production induced by live bacteria” value is “substantially inhibited”. Moreover, in test [3], the “inhibition of bacterial growth” value is reported as “substantially inhibited”. In test [3] (detection limit), this substance returned a surviving bacteria below 100 cells/ml. The “DNA-induced nitric oxide production” value in the test with HD11 cells [4] is reported as “increasing”. Further, the “uptake of ODN-2006 by HD11 cells” value with HD11 cells [5] was “enhanced the uptake”.
